Results on 13 molecules are retold here after patent US7794972B2, “Benzoate-and anthranilate-inducible promoters” (priority 2002, dated 2010).

Entries after “also recorded” stand apart in the source; their conditions may differ.

Assay type in all cases: cell-based, Pseudomonas fluorescens
In series [1] the test system is Pben promoter (Pben509, Pben278). Description: Benzoate promoter (Pben) reporter gene induction (lacZ β-galactosidase / phoA alkaline phosphatase). The conditions noted are these: for induction of the benzoate promoter (Pben509, Pben278): P. fluorescens MB101, reporter gene lacZ or phoA. The method, then:
(§1) Cell growth for induction: Strains of interest were grown overnight (at 30° C. with shaking at 250 rpm) in 1×M9 minimal salts medium (diluted from a 5× preparation purchased from Fisher Scientific, Pittsburgh, Pa.) supplemented with 0.5% or 1% (w/v) glucose, 1 mM MgSO4, and trace elements (for trace elements, the present examples used a solution containing salts of sodium, magnesium, manganese, iron, and cobalt, all at less than 0.5 mg/mL final concentration). Strains were then subcultured 1:4 in the same medium to a volume of 10 or 20 mL and then induced with 0-10 mM concentrations of anthranilate or benzoate, as indicated.
(§2) Strains of interest were grown overnight at 30° C. in 1×M9 medium supplemented with 0.5% or 1% (w/v) glucose, 1 mM MgSO4, and 5L/L trace elements (as described above), and optionally tetracycline at 15 ug/mL. These were then subcultured 1:4 or 1:5 in the same medium and then induced with indicated concentrations of anthranilate, benzoate, or other inducer, for a desired amount of time (e.g., for 2, 4, 6, 8, 12, or 24 hours, or overnight). Samples were taken at indicated times and those samples were assayed for reporter gene activity. Results are reported at time points taken at a given number of hours post-induction; time points are indicated by either a numeral for the number of hours, and in some cases this number is immediately preceded by the letter “I” indicating post-induction.
(§3) We prepared enough of the following assay medium to provide for each sample well of a 96-well plate (i.e. for all those wells used, with at least one well being used for each time point measured during the reaction course for each sample): 152 μL Z buffer (0.06M Na2HPO4.7H2O, 0.04M NaH2PO4.H2O, 0.01M KCl, 0.001M MgSO4.7H2O)+8 μL 1M β-mercaptoethanol. For each 900 μL of the resulting mix, we added one drop of 0.1%SDS and two drops of CHCl3, mixed (using a vortex-type mixer), and then added 144 μL thereof to each well. 16 μL of cells were then added to each well and the plate sealed with a plastic plate sealer. The plate was then mixed (by vortex) for 10 seconds, and then equilibrated to incubation temperature (room temperature) for 5 minutes. 50 μL 4 mg/mL ONPG was then added. When a significant yellow color developed, 90 μL stop solution (1M Na2CO3) was added and the reaction time recorded. The resulting color intensity for each sample was then read at A420 and A550. In addition, the cell density of each culture providing the 16 μL of cells used in each sample was read at A600. Miller Units were calculated as follows: • 1000 * ((A420−(1.75*A550))/(time(in minutes) *0.1 * A600)). Alkaline Phosphatase Assas
(§4) For this assay we prepared SIGMA FAST (p-nitrophenyl phosphate (PNPP) substrate, from Sigma-Aldrich Corp., St. Louis, Mo.) by adding one of each tablet provided by the manufacturer (one table each PNPP and Tris; stored at −20° C.) to 20 mL ddH2O, giving a final concentration of 1 mg/mL PNPP and 0.2M Tris. At each time point, for each sample, 50 μL SIGMA FAST substrate was combined with 5 μL of cells. The result was then incubated at room temperature for 30 minutes. The resulting color intensity for each sample was then read at A410. In addition, the cell density of each culture providing the 5 μL of cells used in each tested sample was read at A600 (i.e. the cell cultures were read in a 96 well plate). The value of A410/(0.1 * A600) was then calculated to express alkaline phosphatase activity/cell.
Benzoate-inducible promoter activity was tested by fusing the DNA fragment containing the putative promoter sequence of Pben509, or of Pben278 (described below), upstream of an easily assayable reporter gene (i.e. either lacZ, which encodes β-galactosidase and was used as the chief reporter gene, orphoA). The resulting plasmid was transformed into P. fluorescens MB101. […]
A general note: A reporter such as luciferase makes a cellular process visible.

In series [2] the test system is Pant promoter (Pant713, antR/Pant). As to the kind of experiment: Anthranilate promoter (Pant) reporter gene induction (lacZ / phoA). The conditions noted are these: for induction of the anthranilate promoter: P. fluorescens, reporter gene lacZ or phoA. On the procedure: as §1, §2, §3, §4
Anthranilate, like benzoate, is an inexpensive low toxic compound that can be utilized by P. fluorescens, making it an ideal compound to investigate as an inducer. […]. […] Expansion of the promoter clone to include the transcriptional activator gene 5′ of the antA open reading frame (ORF) increased expression levels of the lacZ fusion. […]

The subject of series [3] is Pant-Pben tandem promoter. As to the kind of experiment: Pant-Pben tandem promoter reporter gene induction (lacZ). To be noted: for induction of the Pant-Pben tandem promoter: P. fluorescens. The method, then:
as §1, §2, §3
However, unlike the catabolite-repressed Pben promoter, the activity of the Pant promoter was not inhibited during fermentation A fusion of these two promoters was created by linking them together, as shown in SEQ ID NO:3, i.e. by cloning a fragment antR and Pant, upstream of the Pben278 promoter fused to lacZ.

Regarding `Oc1ccccc1O` [catechol], the “induction of the benzoate promoter (Pben509, Pben278)” value (from here on “induction of the benzoate promoter”) in series [1] is given as “fail to induce”. Take `Cc1ccccc1C(=O)O` [o-toluate]: the “induction of the anthranilate promoter” value in series [2] was “induce this promoter as well as does anthranilate”. Besides, in series [3], the “induction of the Pant-Pben tandem promoter” value was “induce this promoter as well as does anthranilate”. `Nc1cc(Cl)ccc1C(=O)O` [4-chloro-anthranilate]: the “induction of the anthranilate promoter” value in series [2] is given as “inducible”. Regarding `Nc1ccccc1C(=O)O` [anthranilic acid], the “induction of the anthranilate promoter” value in series [2] is “inducible”. Moreover, the “induction of the Pant-Pben tandem promoter” value in series [3] is “inducible”. Regarding `Nc1c(Cl)cccc1C(=O)O` [3-chloro-anthranilate], the “induction of the anthranilate promoter” value in series [2] is “inducible”. Take `O=C(O)/C=C\C=C/C(=O)O` [cis, cis-muconate]: in series [1], the “induction of the benzoate promoter” value is given as “fail to induce”. Take `Nc1ccccc1C(=O)[O-].[Na+]` [sodium anthranilate]: the “induction of the anthranilate promoter” value in series [2] is “inducible”. Further, in series [3], the “induction of the Pant-Pben tandem promoter” value is recorded as “inducible”. The “strength of the tandem antR/Pant-Pben278 construct upon induction, compared with component promoter alone” value in series [3] (lacZ fusion, in the presence of glucose) was “improved”.

Regarding `O=C(O)c1ccccc1` [benzoic acid], the “induction of the benzoate promoter” value in series [1] is reported as “inducible”. For the same molecule, the “induction of the Pant-Pben tandem promoter” value in series [3] is listed as “inducible”.

As to `O=C([O-])c1ccccc1.[Na+]` [sodium benzoate], the figures for the “induction of the benzoate promoter” value in series [1] and in series [1] (listed as benzoate) were “inducible; also recorded: show β-galactosidase or alkaline phosphatase activity” and “benzoate was indeed the inducer for Pben”, respectively. Also, the “induction of expression of exogenous genes, benzoate promoter” value in series [1] (induced with 5 mM sodium benzoate) is “about 250 fold”.

With `Nc1cccc(Cl)c1C(=O)O` [6-chloro-anthranilate, 6-chloroanthranilate], the “induction of the anthranilate promoter” value in series [2] is “inducible”. Still for that read-out and setting: the same measure for `Nc1ccc(Cl)cc1C(=O)O` [5-chloro-anthranilate]: “inducible”. For the molecule `Cc1cccc(C(=O)O)c1` [m-toluic acid], the “induction of the benzoate promoter” value in series [1] was “inducible”.

B1: Pant promoter with multi-copy antR: anthranilate-inducible promoter of P. fluorescens with the AntR activator coding sequence, a1-c1395 of SEQ ID NO:13 (nucleic acid)
DNA: AGCTTGCATGCCTGCAGGTTTAAACAGTCGACTCTAGACTTAATTAACTATCGCAGGCAAGCCAGCTCCCACAGATTGTTTTTCATCCAGTTCAAGTAATGCGCAGGCGCTTGCGCTGCAATGTCTGGCTGGGCGACTCATCGAACAGCTTGCGGTACTCCGCCGAAAACCGCCCCAAATGCGTAAACCCCCAACCCAGGGCGATTTCAGAGATGGTGCGGATCGAGCCCTGCTCCAGAATTTCTTGGCGCACCGCCCCCAACCGATGCTTCTTCAAATACGACATGGGCGACAGTGCGAAGTACTTGCGAAACGCATCGAACAGTTTGAAACGCGACACGCCCGCCGCCGCTTCCAGGTCTTCCAGGTGCAGCGCTTCACGGGCGTTGTCGTGGATAAATTGCCGCGCGCGGATCAGGTAGTGCGGCAGTTTCACCCCCAGCACGTCGCGCAGTTCTTCGGAGTAGTTATTCGGTTGGGCCAGGATCAGGCCCTTGATCAGCGAGCTTTCCAGGTCGCGAGTAAACGCCGCCTGCTCGTACAGTTCGCTGCTGCGCTCCAGTTCGGCGATGAAATAACGCGCCATGCGCCACCACGAAGCCGGTGCTCCGTCCACAGCATCCATCACCGACTCAAAGCGCAGCGGCGCATCAATGGGCCGTTGCAGCAAACCTTCCAGCGACTCGCTCATCGCCGCACGGGTGATTACCACCTGCAACTTGCGGCAGTCACCGGAAATCGCCAGCACCTGATGCTCATTGGGCGAAATGATCACGCCTTGGTCGCGGTTGGAACTGAGACGTTCACCGTTCTTGCTCAGCTCCTGCTCGCCCACCAGTGGCAGGCTCAAGCTGTAGCTGCTGAAGTGCTCGGCGTCTTCGATGTCGATGGTCACATCAGTGCCGTACTCGATCACGCCCAGGGTGGTGGCGCGGGATTTGAACACGTTGGCGCTGTGGTGAAAGCGCAGGCGCTCGGGGGTTGCCGTCGCCAGGCGATGGGGCCCGCAGATGCCGGACATCCAGCTGCGCGCGCCTTCCAGGTCGAAGCGTTGAATATGAATATCGCGTGTCTGACTAGTCATCAGGGTGCACCCACGGCGGTTAGGCGTTTGCGCGCTCTGACGGCGCGTCGTTGAACCTCGACAGCAAGTTCCAGGCCACGCCAGTGCAGTTCTCACTGGGTGGATAGCAACGGTCGACTATGTGGATAAACCCCAGAGTTTTGCGACCATCGCCCGCCATCACAGTAGCGCATGCCGTCACCGGCGCGCACCGTCATGGGTATTTGCCGCCCAACTTTGCGGCCTACGTTCCCCCATTAAGCGGATAGCCCGCCACCGCATCGCAGCCGCTTAATGGCTCACCGTTTAGCCATGATCAAAAGGTGCCTCCC
modifications: Construct containing the pDOW1057 Pant-Pben tandem promoter
With B1, the “relative strength of promoter versus Pben278 promoter” value in series [2] (Pant with multi-copy antR) was “approximately ⅕”.
